{
  "source": "patent US20090269770A1",
  "about": "“METHODS FOR EVALUATION PROGNOSIS AND FOLLOW-UP OF DRUG TREATMENT OF PSYCHIATRIC DISEASES OR DISORDERS” (priority 2008, published 2009)",
  "origin": "cited, not measured here",
  "test_system": "negative symptoms of schizophrenia",
  "conditions": "non-serotonergic antidepressant add-on (Silver and Shmugliakov, 1998); cited from earlier work",
  "data": [
    {"smiles": "CNCCCC12CCC(c3ccccc31)c1ccccc12", "note": "[maprotaline]", "values": [
      {"measurement": "effect on negative symptoms", "value": "did not improve negative symptoms"}
    ]}
  ]
}
